Converted amounts (≈) assume the structure as drawn.
Columns and labels:
Streptococcus spp. = assay: Effect on intestinal bacterial colonies, Streptococcus count in feces; assay type: in vivo; conditions: female ICR mice, oral 500 mg/kg/day for two days, first day after administration; before administration 6.8
Description: (§1) Effect of the present compounds on the intestinal bacterial colonies was examined.
(§2) Each of the present compounds was orally administered to mice (one group consisting of five female ICR mice of 6-week-old) for two consecutive days at a dose of 500 mg/kg/day.
(§3) Before and on the first day after the administration, feces of each mouse was collected and diluted with an anerobic diluent (phosphoric buffer solution) of 100 times volume and ground. 0.1 ml of the diluted and ground feces was smeared on each culture medium shown in Table 1 and cultured aerobically or anaerobically (according to the anaerobic glove box method) under each condition shown in Table 1.
TATAC agar aerobic, 37° C., one day

[1] = test system: Staphylococcus aureus IAM 1011; assay: Antibacterial activity (MIC), agar plate, Staph. aureus; assay type: cell-based; conditions: Staph. aureus IAM 1011, Mueller-Hinton agar, 37° C., 18 to 24 hours; unit assumed
Description: (§4) Antibacterial activity of the present compounds was examined as follows.
(§5) Antibacterial activity of each of the present compounds was examined against the following two bacteria according to the standard method of Japan Society of Chemotherapy:
Staphylococcus aureus IAM 1011
(§6) Each bacterial strain was inoculated into the Mueller-Hinton's culture medium and cultured at 37° C. for 18 to 48 hours. The culture medium was diluted so as to contain 1×10^6 cells of the bacteria per one ml, and the obtained medium was used as the bacterial specimen.
(§7) Agar plates were prepared by adding one part by weight of each solution of the present compounds having a predetermined concentration to nine parts by weight of Mueller-Hinton's culture medium.
(§8) A loopful amount of the bacterial specimen prepared above was smeared to make a streak of about 2 cm on each agar plate and cultured at 37° C. for 18 to 24 hours. The minimum concentration for completely inhibiting proliferation of the bacteria (referred as MIC) was determined.

Lactobacillus bifidus = assay: Effect on intestinal bacterial colonies, L. bifidus count in feces; assay type: in vivo; conditions: female ICR mice, oral 500 mg/kg/day for two days, first day after administration; before administration 8.4
Description: as §1, §2, §3
BS agar anaerobic, 37° C., five

Escherichia coli = assay: Effect on intestinal bacterial colonies, E. coli count in feces; assay type: in vivo; conditions: female ICR mice, oral 500 mg/kg/day for two days, first day after administration; before administration 6.4
Description: as §1, §2, §3
DHL agar aerobic, 37° C., one day

[2] = test system: Lactobacillus acidophilus; assay: Effect on intestinal bacterial colonies, L. acidophilus count in feces; assay type: in vivo; conditions: female ICR mice, oral 500 mg/kg/day for two days, first day after administration; before administration 9.0
Description: as §1, §2, §3
Lactobacillus acidophilus
LBS agar anaerobic, 37° C., five

Pseudomonas aeruginosa = assay: Effect on intestinal bacterial colonies, Ps. aeruginosa count in feces; assay type: in vivo; conditions: female ICR mice, oral 500 mg/kg/day for two days, first day after administration; before administration <3.0
Description: as §1, §2, §3
NAC agar aerobic, 37° C., one day

[3] = test system: Escherichia coli IFO 12734; assay: Antibacterial activity (MIC), agar plate, E. coli; assay type: cell-based; conditions: E. coli IFO 12734, Mueller-Hinton agar, 37° C., 18 to 24 hours; unit assumed
Description: as §4, §5
Escherichia coli IFO 12734 and
as §6, §7, §8

[4] = test system: Staphylococcus aureus IAM 1011; assay: Activation by rat liver homogenate (S-9 mix), penicillin cup proliferation-inhibiting circle; assay type: cell-based; conditions: compound solution 100 μg/ml, ratio of circle diameter to conventional penicillin antibiotic
Description: As an enzyme for activating metabolism, a rat liver homogenate (S-9, manufactured by Oriental Yeast Company, Japan) was used in the following composition per one ml (hereinafter referred to as S-9 mix).
0.1 ml of each solution of the present compounds at a concentration of 100 μg/ml was mixed with 0.9 ml of S-9 mix or 0.9 ml of 0.1M phosphoric buffer solution (as a control) and the obtained mixture was incubated at 37° C. for 20 min with shaking.
Staphylococcus aureus IAM 1011 was inoculated into a Mueller-Hinton's culture medium and cultured at 37° C. for 18 hours. The culture medium was adjusted to a cell concentration of 1×10^8 per one ml and mixed with 50 times by volume of Mueller-Hinton's agar culture medium to obtain an agar plate.
A penicillin cup of 8 mm in diameter was placed on the agar plate prepared above, and into the cup 0.1 ml of the mixture was introduced and allowed to stand at 4° C. for 2 hours and then cultured at 37° C. for 18 hours to measure the diameter of a circle in which the proliferation of bacteria was inhibited (proliferation-inhibiting circle). In Table 4, the proliferation-inhibitingindex is shown with the ratio (%) of the diameter of the proliferation-inhibiting circle obtained by using each of the present compounds to that obtained by using the comparative compound (conventionalpenicillin antibiotic).

Bacteroides = assay: Effect on intestinal bacterial colonies, Bacteroides count in feces; assay type: in vivo; conditions: female ICR mice, oral 500 mg/kg/day for two days, first day after administration; before administration 8.3
Description: as §1, §2, §3
Bacteroides NBGT agar anaerobic, 37° C., five

MIC, Staph. aureus [1]: 12.5 µg/mL (≈ 31.7 µM)
MIC, E. coli [3]: ≥ 25 µg/mL
Structure (SMILES): COCOC(=O)[C@@H]1N2C(=O)[C@@H](NC(=O)COc3ccccc3)[C@H]2SC1(C)C [Example 9]
Logarithmic value of the number of bacterial cells per one gram of feces, Strept. spp. (Streptococcus spp.): 7.0 logarithmic value; cells per o
Logarithmic value of the number of bacterial cells per one gram of feces, L. bifidus (Lactobacillus bifidus): 8.5 logarithmic value; cells per o
Logarithmic value of the number of bacterial cells per one gram of feces, E. coli (Escherichia coli): 6.5 logarithmic value; cells per o
Logarithmic value of the number of bacterial cells per one gram of feces, L. acidophilus [2]: 9.5 logarithmic value; cells per o
Logarithmic value of the number of bacterial cells per one gram of feces, Ps. aeruginosa (Pseudomonas aeruginosa): 3.2 logarithmic value; cells per o
Proliferation-inhibiting index (%), after adding S-9 mix ([4]; incubated with S-9 mix 37° C., 20 min): ++ (33-66)
Proliferation-inhibiting index (%), before adding S-9 mix ([4]; phosphoric buffer control without S-9): + (1-33)
Logarithmic value of the number of bacterial cells per one gram of feces, Bacteroides (Bacteroides): 8.1 logarithmic value; cells per o
